Source: publication PMC3907362, “Synthetic cationic antimicrobial peptides bind with their hydrophobic parts to drug site II of human serum albumin” (BMC Structural Biology, 2014)
Several values for one entry are separate records, joined by “and”; a condition that tells them apart may be missing. Equal entries are not always repeated. Entries after “also recorded” stand apart in the source; their conditions may differ. Where two headings read alike, the source gives them in different places. Residues, ends and D or L forms follow the SMILES beside them.

Legend:
[1] = system: Escherichia coli ATCC 25922; format: cell-based
Procedure: (§1) The antibacterial activity of CAP 1 and CAP 5 were tested towards Staphylococcus aureus strain ATCC 25923, methicillin resistant Staphylococcus aureus strain ATCC 33591 and Escherichia coli strain ATCC 25922. The studies were performed by Toslab AS employing standard methods.

[2] = system: Methicillin resistant Staphylococcus aureus ATCC 33591; format: cell-based
Procedure: as §1

[3] = system: Staphylococcus aureus strain ATCC 25923; format: cell-based
Procedure: as §1

[4] = system: selected bacteria; assay: MIC towards selected bacteria, summary over strains; format: cell-based; details: all bacterial strains tested
Procedure: as §1

[5] = target: T1, human serum albumin (HSA) (Homo sapiens, UniProt P02768); assay: Non-competitive isothermal titration calorimetry (ITC); details: for Kd: pH 7.4
Procedure: The experiments were either performed on a CSC 5300 Nano-Isothermal Titration Calorimeter III (Calorimetry Sciences Corporation, Utah, USA) with a cell volume of 1 mL, or a MicroCal™ iTC200 with a cell volume of 200 μL (MicroCal, LLC., Northampton, MA, USA). In all experiments lyophilized HSA ~99% essential fatty acid and globulin free (Sigma A3782), was weighed out to a nominal concentration and dissolved prior to the experiments in buffer 50 mM Tris, 10 mM CaCl2, pH 7.4 at 25°C. All ligands and peptides were dissolved in the same buffer. Control titrations of ligand into buffer were performed in duplicate to investigate if the heat of dilution would generate a significant signal, and if ligand-ligand interactions were present in the competitive experiments. The same settings as for the corresponding ligand-HSA experiments were applied in the control experiments.
A stirring rate of 150 rpm and an isotherm temperature of 25°C were applied. The response signal was measured at 1 s intervals, and a 200 s baseline was collected prior to the first injection for the purpose of assessing the baseline. Non-competitive experiments were carried out either in duplicates or triplicates. […] In total 40 consecutive injections were performed with a volume of 5 μL and a spacing of 300 s. […] Prior to the first injection, a baseline of 100 s was recorded to ensure instrument stability. The solution was stirred at 150 rpm, and the isothermal temperature set to 25°C. All competitive experiments were carried out in duplicate. […] The first injection was set to a dummy volume of 0.1 μL due to syringe leakage in the baseline equilibration step. An initial delay of 180 s was set to sample the baseline. The applied reference power was 6 μcal/s and an isothermal temperature of 25°C was used. […] For the selected peptides CAP 3 and CAP 5 competitive experiments with reversed order of the reference ligands and the CAP were performed as a control of titration order. The same ITC settings were applied for the non-competitive and competitive experiments with the MicroCal™ iTC200.
The ITC data was analyzed using the NanoAnalyse software from TA Instruments, v2.0.1 (Waters LLC, New Castle, DE, US) or Origin® 7.0. Independent model fit was used to generate the binding isotherm, and the first injection in all titration experiments was omitted in the binding isotherm analysis. The heat of dilution and unspecific binding signal corresponding to the last injection in each experiment was subtracted from all of the heat signals. The quality of the model fit was examined using the statistical modules of the software, the 95% confidence interval based on a 1000 trial calculations in the NanoAnalyze package, and the default non-weighted least square calculation in Origin® 7.0.

[6] = target: HSA (Homo sapiens, UniProt P02768); assay: NMR WaterLOGSY; format: binding; details: HSA:ligand 1:20
Text: All NMR experiments were acquired on an Agilent (Varian) inova spectrometer operating at 599.934 MHz for ^1H, equipped with a 2nd generation inverse triple resonance HCN cold probe. […] The difference spectra were produced by internal subtraction and all spectra were acquired with both sculpted solvent suppression during the PFG spin echo and 500 ms solvent presaturation during the relaxation delay. The protein signals were suppressed by a 10 ms T1ρ-spinlock. Finally, the spectra were multiplied with a 3 Hz exponential window function. For reference, double PFG spin echo 1D proton spectra were acquired using the same parameters, including the 10 ms T1ρ-spinlock for protein suppression. […] All samples were monitored for line broadening, quickened relaxation and NOE inversion to spot any direct interaction between ligands before the addition of HSA.

[7] = target: T1, human serum albumin (HSA); parameters: purchased Sigma A3782; details: HSA drug site II; ref [34],[35]; read-out: binding affinity (Kd), reported in other studies; cited from earlier work
[8] = Kd, CSC 5300 Nano-Isothermal Titration Calorimeter III, 25°C
[9] = Kd, MicroCal iTC200 (values in parenthesis), 25°C
[10] = CSC 5300 Nano-Isothermal Titration Calorimeter III
[11] = MicroCal iTC200 (values in parenthesis)

HSA, sequence (P02768 25-609): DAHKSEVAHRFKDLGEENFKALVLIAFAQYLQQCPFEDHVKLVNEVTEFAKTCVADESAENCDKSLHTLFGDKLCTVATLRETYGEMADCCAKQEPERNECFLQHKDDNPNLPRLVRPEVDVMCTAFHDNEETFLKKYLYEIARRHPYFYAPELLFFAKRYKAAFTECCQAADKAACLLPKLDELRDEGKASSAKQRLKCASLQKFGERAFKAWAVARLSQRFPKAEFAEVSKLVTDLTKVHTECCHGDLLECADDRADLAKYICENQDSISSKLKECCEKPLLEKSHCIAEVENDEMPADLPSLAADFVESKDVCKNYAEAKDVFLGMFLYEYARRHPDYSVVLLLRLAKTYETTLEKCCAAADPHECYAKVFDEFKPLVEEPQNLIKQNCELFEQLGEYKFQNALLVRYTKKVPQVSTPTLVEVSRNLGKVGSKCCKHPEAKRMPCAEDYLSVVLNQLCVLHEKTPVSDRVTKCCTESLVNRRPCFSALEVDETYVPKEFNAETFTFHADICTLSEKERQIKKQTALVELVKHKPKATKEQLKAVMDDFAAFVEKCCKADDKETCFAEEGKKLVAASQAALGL
T1 sequence (P02768 25-609): as above

Compound | MIC E. coli [1] [µM] | MIC MRSA [2] [µM] | MIC S. aureus [3] [µM] | WaterLOGSY binding to HSA [6] | Kd [5, 8] [µM] | Kd [5, 9] [µM] | other results
C[C@H](NC(=O)[C@@H](N)CCCNC(=N)N)C(=O)N[C@@H](CCCNC(=N)N)C(N)=O [CAP 1] (H-Arg-Ala-Arg-NH2) | >499 | >499 | >499 | does not interact directly with HSA and does not and not |  |  | Antimicrobial activity (MIC relative to threshold) [4]: inactive; Binding to HSA by ITC, in words ([5]; non-competitive ITC): did not bind to HSA; also recorded: does not bind to HSA; Kd [5]: -
N=C(N)NCCC[C@H](NC(=O)[C@H](Cc1c[nH]c2ccccc12)NC(=O)[C@@H](N)CCCNC(=N)N)C(=O)NCc1ccccc1 [CAP 2] (HELM PEPTIDE1{R.W.R.[c1ccc(CN[*:1])cc1]}$$$$V2.0) |  |  |  |  | 23 ± 8 |  | 
N=C(N)NCCC[C@H](NC(=O)[C@H](Cc1ccc(-c2ccccc2)cc1)NC(=O)[C@@H](N)CCCNC(=N)N)C(=O)NCc1ccccc1 [CAP 3] (HELM PEPTIDE1{R.[O=C([C@H](Cc1ccc(-c2ccccc2)cc1)N[*:1])[*:2]].R.[c1ccc(CN[*:1])cc1]}$$$$V2.0) |  |  |  |  | 22 ± 9 | 99 | 
CC(C)(C)c1cc(C(C)(C)C)c2[nH]c(C(C)(C)C)c(C[C@H](NC(=O)[C@@H](N)CCCNC(=N)N)C(=O)N[C@@H](CCCNC(=N)N)C(=O)NCc3ccccc3)c2c1 [CAP 4] |  |  |  |  | 25 ± 9 |  | 
C[C@H](N)C(=O)N[C@@H](Cc1ccc(-c2ccccc2)cc1)C(=O)N[C@@H](C)C(N)=O [CAP 5] | >523 | >523 | >523 |  |  | 100 | 
CN(C)c1cccc2c(S(=O)(=O)NCC(=O)O)cccc12 [Dgly, dansylglycine] |  |  |  | clear WaterLOGSY effect | 11 ± 4 | 40 | TΔS [5, 10]: 9.62 ± 2.1 kJ/mol; n (stoichiometric ratio) [5, 10]: 1.08 ± 0.05; ΔH [5, 10]: -18.8 ± 1.3 kJ/mol; TΔS [5, 11]: 2.1 ± 0.42 kJ/mol; n (stoichiometric ratio) [5, 11]: 1.16 ± 0.01; ΔG [5, 11]: -25.1 kJ/mol and -25.1 ± 0.084 kJ/mol; ΔH [5, 11]: -23 ± 0.42 kJ/mol; Kd [7]: 1.7 to 3.2 µM
